Test results from US20010021697A1, “METHODS AND COMPOSITIONS FOR THE TREATMENT OF MAMMALIAN INFECTIONS EMPLOYING MEDICAMENTS COMPRISING HYMENOPTERA VENOM, PROTEINAGEOUS OR POLYPEPTIDE COMPONENTS THEREOF, OR ANALOGUES OF SUCH PROTEINACEOUS OR POLYPEPTIDE COMPONENTS” (priority 1987, published 2001).
Where two headings read alike, the source gives them in different places.

How the values were obtained:
Assay type in all cases: cell-based
E. coli #G1880E = system: E. coli #G1880E
[1] = system: kanamycin resistant S. aureus; experiment: Checkerboard titration assay for synergy of honeybee venom with antibiotics (OD660 growth curves)
S. aureus #140A = system: S. aureus #140A

For `CC1(C)S[C@@H]2[C@H](NC(=O)[C@H](N)c3ccccc3)C(=O)N2[C@H]1C(=O)O` [AMP], the “MEAN A660” value (E. coli #G1880E; AMP = 0.5, HBV = 0, T0) was 0.015, the “MEAN A660” value (E. coli #G1880E; AMP = 0.5, HBV = 0, T2) was 0.084 and the “MEAN A660” value (E. coli #G1880E; AMP = 0.5, HBV = 0, T4) was 0.600. The “MEAN A660” value (E. coli #G1880E; AMP = 0.5, HBV = 0, T6) was 1.001, the “MEAN A660” value (E. coli #G1880E; AMP = 0.5, HBV = 0, T8) was 0.999 and the “MEAN A660” value (E. coli #G1880E; AMP = 0.5, HBV = 0, T12) was 1.085. The “MEAN A660” value (E. coli #G1880E; AMP = 0.5, HBV = 0, T24) was 1.156, the “MEAN A660” value (E. coli #G1880E; AMP = 1, HBV = 0, T0) was 0.015 and the “MEAN A660” value (E. coli #G1880E; AMP = 1, HBV = 0, T2) was 0.084. For the same compound, the “MEAN A660” value (E. coli #G1880E; AMP = 1, HBV = 0, T4) was 0.538, the “MEAN A660” value (E. coli #G1880E; AMP = 1, HBV = 0, T6) was 0.628 and the “MEAN A660” value (E. coli #G1880E; AMP = 1, HBV = 0, T8) was 0.493. The “MEAN A660” value (E. coli #G1880E; AMP = 1, HBV = 0, T12) was 0.475, the “MEAN A660” value (E. coli #G1880E; AMP = 1, HBV = 0, T24) was 0.504 and the “MEAN A660” value (E. coli #G1880E; AMP = 2, HBV = 0, T0) was 0.015. For the same compound, the “MEAN A660” value (E. coli #G1880E; AMP = 2, HBV = 0, T2) was 0.084, the “MEAN A660” value (E. coli #G1880E; AMP = 2, HBV = 0, T4) was 0.428 and the “MEAN A660” value (E. coli #G1880E; AMP = 2, HBV = 0, T12) was 0.136. The “MEAN A660” value (E. coli #G1880E; AMP = 2, HBV = 0, T24) was 0.647, the “MEAN A660” value (E. coli #G1880E; AMP = 4, HBV = 0, T0) was 0.015 and the “MEAN A660” value (E. coli #G1880E; AMP = 4, HBV = 0, T2) was 0.084. The “MEAN A660” value (E. coli #G1880E; AMP = 4, HBV = 0, T4) was 0.158, the “MEAN A660” value (E. coli #G1880E; AMP = 4, HBV = 0, T6) was 0.063 and the “MEAN A660” value (E. coli #G1880E; AMP = 4, HBV = 0, T12) was 0.055. For the same compound, the “MEAN A660” value (E. coli #G1880E; AMP = 4, HBV = 0, T24) was 0.056, the “MEAN A660” value ([1]; AMP = 0.05, HBV = 0, T0) was 0.020 and the “MEAN A660” value ([1]; AMP = 0.05, HBV = 0, T2) was 0.064. For the same compound, the “MEAN A660” value ([1]; AMP = 0.05, HBV = 0, T4) was 0.230, the “MEAN A660” value ([1]; AMP = 0.05, HBV = 0, T6) was 0.338 and the “MEAN A660” value ([1]; AMP = 0.05, HBV = 0, T8) was 0.372. The “MEAN A660” value ([1]; AMP = 0.05, HBV = 0, T12) was 0.352, the “MEAN A660” value ([1]; AMP = 0.05, HBV = 0, T24) was 0.461 and the “MEAN A660” value ([1]; AMP = 0.1, HBV = 0, T0) was 0.020. For the same compound, the “MEAN A660” value ([1]; AMP = 0.1, HBV = 0, T2) was 0.064, the “MEAN A660” value ([1]; AMP = 0.1, HBV = 0, T4) was 0.379 and the “MEAN A660” value ([1]; AMP = 0.1, HBV = 0, T6) was 0.156. The “MEAN A660” value ([1]; AMP = 0.1, HBV = 0, T8) was 0.112, the “MEAN A660” value ([1]; AMP = 0.1, HBV = 0, T12) was 0.050 and the “MEAN A660” value ([1]; AMP = 0.1, HBV = 0, T24) was 0.053. For the same compound, the “MEAN A660” value ([1]; AMP = 0.2, HBV = 0, T0) was 0.020, the “MEAN A660” value ([1]; AMP = 0.2, HBV = 0, T2) was 0.064 and the “MEAN A660” value ([1]; AMP = 0.2, HBV = 0, T4) was 0.131. For the same compound, the “MEAN A660” value ([1]; AMP = 0.2, HBV = 0, T6) was 0.110, the “MEAN A660” value ([1]; AMP = 0.2, HBV = 0, T8) was 0.073 and the “MEAN A660” value ([1]; AMP = 0.2, HBV = 0, T12) was 0.030. The “MEAN A660” value ([1]; AMP = 0.2, HBV = 0, T24) was 0.037, the “MEAN A660” value ([1]; AMP = 0.4, HBV = 0, T0) was 0.020 and the “MEAN A660” value ([1]; AMP = 0.4, HBV = 0, T2) was 0.064. The “MEAN A660” value ([1]; AMP = 0.4, HBV = 0, T4) was 0.202, the “MEAN A660” value ([1]; AMP = 0.4, HBV = 0, T6) was 0.290 and the “MEAN A660” value ([1]; AMP = 0.4, HBV = 0, T8) was 0.285. The “MEAN A660” value ([1]; AMP = 0.4, HBV = 0, T12) was 0.271, the “MEAN A660” value ([1]; AMP = 0.4, HBV = 0, T24) was 0.277 and the “MEAN A660” value (S. aureus #140A; AMP = 0.05, HBV = 0, T0) was 0.013. The “MEAN A660” value (S. aureus #140A; AMP = 0.05, HBV = 0, T2) was 0.085, the “MEAN A660” value (S. aureus #140A; AMP = 0.05, HBV = 0, T4) was 0.355 and the “MEAN A660” value (S. aureus #140A; AMP = 0.05, HBV = 0, T6) was 0.552. The “MEAN A660” value (S. aureus #140A; AMP = 0.05, HBV = 0, T12) was 0.736, the “MEAN A660” value (S. aureus #140A; AMP = 0.05, HBV = 0, T24) was 0.760 and the “MEAN A660” value (S. aureus #140A; AMP = 0.05, HBV = 0, TB) was 0.689. For the same compound, the “MEAN A66O” value (S. aureus #140A; AMP = 0.1, HBV = 0, T0) was 0.013, the “MEAN A66O” value (S. aureus #140A; AMP = 0.1, HBV = 0, T2) was 0.085 and the “MEAN A66O” value (S. aureus #140A; AMP = 0.1, HBV = 0, T4) was 0.257. The “MEAN A66O” value (S. aureus #140A; AMP = 0.1, HBV = 0, T6) was 0.248, the “MEAN A66O” value (S. aureus #140A; AMP = 0.1, HBV = 0, T8) was 0.155 and the “MEAN A66O” value (S. aureus #140A; AMP = 0.1, HBV = 0, T12) was 0.095. The “MEAN A66O” value (S. aureus #140A; AMP = 0.1, HBV = 0, T24) was 0.347, the “MEAN A660” value (S. aureus #140A; AMP = 0.2, HBV = 0, T0) was 0.013 and the “MEAN A660” value (S. aureus #140A; AMP = 0.2, HBV = 0, T2) was 0.085. For the same compound, the “MEAN A660” value (S. aureus #140A; AMP = 0.2, HBV = 0, T4) was 0.202, the “MEAN A660” value (S. aureus #140A; AMP = 0.2, HBV = 0, T6) was 0.112 and the “MEAN A660” value (S. aureus #140A; AMP = 0.2, HBV = 0, T8) was 0.052. For the same compound, the “MEAN A660” value (S. aureus #140A; AMP = 0.2, HBV = 0, T12) was 0.037, the “MEAN A660” value (S. aureus #140A; AMP = 0.2, HBV = 0, T24) was 0.042 and the “MEAN A66O” value (S. aureus #140A; AMP = 0.4, HBV = 0, T0) was 0.013. The “MEAN A66O” value (S. aureus #140A; AMP = 0.4, HBV = 0, T2) was 0.085, the “MEAN A66O” value (S. aureus #140A; AMP = 0.4, HBV = 0, T4) was 0.191 and the “MEAN A66O” value (S. aureus #140A; AMP = 0.4, HBV = 0, T6) was 0.110. For the same compound, the “MEAN A66O” value (S. aureus #140A; AMP = 0.4, HBV = 0, T8) was 0.048, the “MEAN A66O” value (S. aureus #140A; AMP = 0.4, HBV = 0, T12) was 0.027 and the “MEAN A66O” value (S. aureus #140A; AMP = 0.4, HBV = 0, T24) was 0.027.
